Assays:
Test in all cases: Kinase panel study
Format in all cases: biochemical
Settings in all cases: read-out: Percentage of inhibition; for inhibition at 1 µM: 1000nM; for inhibition at 10 µM: 10000nM
[1] = molecular target: T1, PRKD2 (PKD2) (Homo sapiens, UniProt Q9BZL6)
T1 construct: purchased Thermo Fisher Scientific
T1 sequence (Q9BZL6 1-878): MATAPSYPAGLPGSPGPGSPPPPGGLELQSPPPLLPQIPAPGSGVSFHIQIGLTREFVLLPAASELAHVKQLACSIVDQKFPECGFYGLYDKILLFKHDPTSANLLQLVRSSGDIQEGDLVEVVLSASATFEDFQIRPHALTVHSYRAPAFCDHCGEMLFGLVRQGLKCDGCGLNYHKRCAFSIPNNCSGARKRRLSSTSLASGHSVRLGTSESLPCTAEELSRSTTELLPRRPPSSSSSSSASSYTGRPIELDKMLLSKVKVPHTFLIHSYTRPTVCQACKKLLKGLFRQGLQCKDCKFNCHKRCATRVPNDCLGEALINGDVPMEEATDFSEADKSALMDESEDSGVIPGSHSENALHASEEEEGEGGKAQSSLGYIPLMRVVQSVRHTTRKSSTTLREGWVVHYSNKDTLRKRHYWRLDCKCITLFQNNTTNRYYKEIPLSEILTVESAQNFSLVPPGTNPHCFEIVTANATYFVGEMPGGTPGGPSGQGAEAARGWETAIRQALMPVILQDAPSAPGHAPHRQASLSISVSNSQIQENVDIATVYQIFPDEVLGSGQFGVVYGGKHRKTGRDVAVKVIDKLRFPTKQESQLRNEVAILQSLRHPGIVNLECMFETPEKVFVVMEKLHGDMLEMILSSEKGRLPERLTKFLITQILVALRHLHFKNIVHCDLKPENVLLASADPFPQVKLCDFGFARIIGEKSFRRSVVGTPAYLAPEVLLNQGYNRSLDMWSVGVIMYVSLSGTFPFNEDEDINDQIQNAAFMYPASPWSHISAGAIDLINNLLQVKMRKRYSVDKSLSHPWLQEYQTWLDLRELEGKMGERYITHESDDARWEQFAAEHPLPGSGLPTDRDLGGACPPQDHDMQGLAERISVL
Method in brief: (§1)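 A commercial kinase profiling service ran the assays according to its ZLyte or Adapta standard protocols. Compound was present at 10 µM or 1 µM, and kinase activity loss was expressed as percent inhibition.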

[2] = molecular target: T2, MAPK12 (p38 gamma) (Homo sapiens, UniProt P53778)
T2 construct: purchased Thermo Fisher Scientific
T2 sequence (P53778 1-367): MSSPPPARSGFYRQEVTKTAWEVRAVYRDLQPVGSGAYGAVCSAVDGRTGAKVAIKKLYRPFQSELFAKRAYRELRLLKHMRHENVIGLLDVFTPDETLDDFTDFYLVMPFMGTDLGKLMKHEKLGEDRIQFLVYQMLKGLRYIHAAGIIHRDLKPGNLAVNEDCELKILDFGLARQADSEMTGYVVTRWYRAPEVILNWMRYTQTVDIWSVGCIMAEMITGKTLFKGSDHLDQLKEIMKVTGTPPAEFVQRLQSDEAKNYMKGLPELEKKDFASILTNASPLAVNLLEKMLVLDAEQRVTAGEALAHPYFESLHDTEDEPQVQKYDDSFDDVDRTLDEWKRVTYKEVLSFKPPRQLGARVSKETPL
Method in brief: as §1

[3] = molecular target: T3, AMPKA2/B1/G1 (Homo sapiens, UniProt P54646)
T3 construct: purchased Thermo Fisher Scientific
Method in brief: as §1

[4] = molecular target: T4, ADRBK1 (GRK2) (Homo sapiens, UniProt P25098)
T4 construct: purchased Thermo Fisher Scientific
T4 sequence (P25098 1-689): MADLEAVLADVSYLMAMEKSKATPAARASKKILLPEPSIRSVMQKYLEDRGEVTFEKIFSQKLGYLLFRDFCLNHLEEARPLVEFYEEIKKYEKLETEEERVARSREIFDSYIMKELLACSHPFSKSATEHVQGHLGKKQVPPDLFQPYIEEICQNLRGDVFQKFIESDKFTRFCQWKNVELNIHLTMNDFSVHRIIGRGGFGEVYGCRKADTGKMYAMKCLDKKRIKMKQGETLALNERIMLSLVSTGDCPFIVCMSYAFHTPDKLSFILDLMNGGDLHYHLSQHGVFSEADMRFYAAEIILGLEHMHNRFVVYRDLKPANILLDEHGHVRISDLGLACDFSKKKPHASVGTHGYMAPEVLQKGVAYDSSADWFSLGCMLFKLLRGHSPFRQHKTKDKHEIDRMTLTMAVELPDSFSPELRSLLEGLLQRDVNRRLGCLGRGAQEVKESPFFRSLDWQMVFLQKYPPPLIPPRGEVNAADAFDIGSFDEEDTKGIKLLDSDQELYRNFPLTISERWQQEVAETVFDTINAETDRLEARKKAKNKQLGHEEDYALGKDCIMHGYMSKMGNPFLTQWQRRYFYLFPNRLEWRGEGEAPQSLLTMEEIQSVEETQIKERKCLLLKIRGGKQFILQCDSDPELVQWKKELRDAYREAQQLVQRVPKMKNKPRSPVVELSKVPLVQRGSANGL
Method in brief: as §1

T3 sequence (P54646 whole entry): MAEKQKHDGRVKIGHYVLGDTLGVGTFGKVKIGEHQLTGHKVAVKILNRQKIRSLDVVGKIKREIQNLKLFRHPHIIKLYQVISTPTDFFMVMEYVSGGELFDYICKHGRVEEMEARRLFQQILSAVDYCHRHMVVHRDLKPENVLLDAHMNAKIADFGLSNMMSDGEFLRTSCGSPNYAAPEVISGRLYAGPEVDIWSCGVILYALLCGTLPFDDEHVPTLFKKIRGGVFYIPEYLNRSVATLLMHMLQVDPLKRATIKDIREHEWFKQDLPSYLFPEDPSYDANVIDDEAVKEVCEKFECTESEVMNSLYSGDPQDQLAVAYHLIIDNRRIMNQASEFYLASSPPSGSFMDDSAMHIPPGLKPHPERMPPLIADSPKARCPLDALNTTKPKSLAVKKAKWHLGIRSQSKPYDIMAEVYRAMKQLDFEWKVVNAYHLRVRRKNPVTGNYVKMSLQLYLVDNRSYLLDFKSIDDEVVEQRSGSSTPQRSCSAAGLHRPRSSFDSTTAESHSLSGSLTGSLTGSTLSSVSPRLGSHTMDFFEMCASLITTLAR
T3 sequence (Q9Y478 whole entry partner): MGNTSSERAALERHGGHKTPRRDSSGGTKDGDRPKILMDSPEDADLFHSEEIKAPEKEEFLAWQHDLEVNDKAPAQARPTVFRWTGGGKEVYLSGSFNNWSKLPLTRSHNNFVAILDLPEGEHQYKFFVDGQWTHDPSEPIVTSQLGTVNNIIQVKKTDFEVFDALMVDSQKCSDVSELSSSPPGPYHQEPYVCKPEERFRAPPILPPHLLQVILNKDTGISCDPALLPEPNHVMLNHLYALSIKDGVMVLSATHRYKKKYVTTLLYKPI
T3 sequence (P54619 whole entry partner): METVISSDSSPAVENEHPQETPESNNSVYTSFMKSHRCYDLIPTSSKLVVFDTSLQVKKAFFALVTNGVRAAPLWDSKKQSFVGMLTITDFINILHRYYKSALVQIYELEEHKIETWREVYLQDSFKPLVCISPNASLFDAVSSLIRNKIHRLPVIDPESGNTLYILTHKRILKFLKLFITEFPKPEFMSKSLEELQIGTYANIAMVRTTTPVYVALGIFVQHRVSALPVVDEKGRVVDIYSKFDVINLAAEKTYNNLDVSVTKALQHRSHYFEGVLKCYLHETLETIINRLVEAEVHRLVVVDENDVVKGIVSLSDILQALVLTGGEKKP

| Structure (SMILES) | inhibition at 1 µM [1] | inhibition at 10 µM [1] | inhibition at 1 µM [2] | inhibition at 10 µM [2] | inhibition at 1 µM [3] | inhibition at 10 µM [3] | inhibition at 1 µM [4] | inhibition at 10 µM [4] |
| --- | --- | --- | --- | --- | --- | --- | --- | --- |
| COc1ccc2c(c1OC)c(=O)n1c3ccc(O)cc3c3ccnc2c31 [MW01, 5-Hydroxy-10,11-dimethoxy-9H-benzo[c]indolo[3,2,1-ij][1,5]naphthyridin-9-one] | 38% | 71% | 8% | 11% | 8% | 32% | 8% | 17% |
| COc1ccc2cc3c(N)nn(C(=O)c4cccc(N(C)C)c4)c3nc2c1 [MW05, (3-Amino-7-methoxypyrazolo[3,4-b]quinolin-1-yl)-[3-(dimethylamino)phenyl]methanone] | 11% | 10% | 4% | 4% | 5% | 0% | -1% | 4% |

Source: EP4467141A1, “PYRAZOLO-QUINOLINES AS SELECTIVE INHIBITORS OF GENOTOXIC STRESS-INDUCED IKK/NF- KB PATHWAYS FOR CANCER THERAPY” (Max-Delbrück-Centrum für Molekulare Medizin in der …, priority 2023, dated 2024)
